Experimental findings from a melting point compilation (Tetko et al.; mined from patent text by program, amines drawn as free bases though some values may be those of a salt) are described below.

Some results are limits rather than exact numbers.

The melting point is the temperature, or range, at which the solid turns liquid. `NCc1ccccc1C1CCN(c2cc3c(cc2F)c(=O)c(C(=O)O)cn3C2CC2)C1` (stereo not drawn) displayed a melting point of 245 to 247 °C.

As for `CCCOc1ccc2ccccc2c1-c1c(OCCC)ccc2ccccc12`, the melting point is 87 °C.

For the compound `COc1ccccc1-c1c(CC(=O)O)n(C)c2ccc(Cl)cc12`, the melting point was in the range of 153 to 154 °C.

`Cc1cccc(-c2nc(N)sc2-c2cccc(-c3ccc(S(C)(=O)=O)cc3)c2)n1`: the melting point was 107 to 109 °C.

Compound `CNC(=O)Oc1c(C)ccc2c1CC(C)C2(C)C` (stereo not drawn) yielded a melting point of 110 °C.

In turn, `c1ccc2c(c1)c1ccccc1c1[nH]cnc21` displayed a melting point of over 375 °C.

`CN1CCN(Cc2ccc(NC(=O)N3CCCc4cc(Oc5ccnc(N)n5)ccc43)cc2C(F)(F)F)CC1` came in with a melting point of 120 to 123 °C.

On to `CS(=O)(=O)Nc1ccc(N2CCC(O)CC2)cc1`, for which the melting point lay in the range of 126 to 129 °C.

`CC(=O)OC[C@@H]1C=C[C@H](n2cnc3c(=O)[nH]c(N)nc32)C1`: the melting point lay in the range of 247 to 249 °C.

In turn, `CC(=O)c1ccc(-c2ccc(OCc3nc4ccccc4s3)cc2)c(F)c1` registered a melting point of 170 to 172 °C.

For `CCCc1c(OCCCOc2ccccc2)ccc2c1OC(CCC(=O)O)(CCC(=O)O)CC2`, the melting point was 130 to 132 °C.

On to `Clc1cc(Cl)n2nc(SCc3ccccc3)nc2n1`, for which the melting point is 97 to 100 °C.

`OC(CCl)CN1CCN(C(c2ccccc2)c2ccccc2)CC1` (stereo not drawn) gave a melting point of 114 to 116 °C.

`COc1cc2c(cc1NC(=S)Nc1ccc([N+](=O)[O-])cc1)C(C)(C)OCC2(C)C`: the melting point fell in the range of 198 to 199 °C.

Regarding `CCOCn1c(C(N)=O)c(OC(C)C)c2cc(OC)ccc21`, the melting point lay in the range of 110 to 112 °C.

For `Cc1cc(C(=O)O)nc(-c2ccc([N+](=O)[O-])cc2)c1`, the melting point fell in the range of 216 to 219 °C.

`CC1=C(C(=O)OCCN(C)c2ccccc2)C(c2ccccc2C(F)(F)F)c2c(ccnc2OC(C)C)N1` (stereo not drawn) yielded a melting point of 114 to 116 °C.

In turn, `NC(=O)c1cc(COc2ccc([N+](=O)[O-])cc2)ccn1` gave a melting point of 172 to 174 °C.

Take `COc1ccc(Cc2ncc(CO)c3cc(OC)c(OC)cc23)cc1OC`: the melting point was in the range of 140 to 146 °C.

Compound `Cc1c(Sc2ccc(Cl)cc2)nn(-c2ccc(S(C)(=O)=O)cc2)c(=O)c1C#N` yielded a melting point of 199 to 201 °C.

`CC12CCCc3cc(N(CC4CC4)c4ccc(C(=O)O)cc4)cc(c31)CCC2` registered a melting point of 234 to 235 °C.

`CCOC(=O)c1cn(-c2ccc(C(F)(F)F)cn2)nc1C` yielded a melting point of 88 to 89 °C.

Compound `CCc1ccc2c(c1)N(Cc1ccc(-c3ccccc3C#N)cc1)C(=O)CC2(C)C` had a melting point of 171 to 172 °C.

Compound `CCn1c(-c2ccc(-n3ccnc3)cc2)cnc1[C@H](Cc1ccccn1)N(C=O)c1cc2cc(C(F)(F)F)ccc2o1` came in with a melting point of 85 to 89 °C.

The compound `CCOC(=O)C1=C(COCCNc2noc(N)n2)NC(C)=C(C(=O)OC)C1c1ccccc1Cl` (stereo not drawn) returned a melting point of 135 °C.

`CCCCn1c(=O)n(CCN2CCN(c3ccccc3OC)CC2)c(=O)c2sccc21` had a melting point of 139 to 140 °C.

`COC1(c2ccc(CCc3cc(F)cc(F)c3NC(=O)C(C)(C)C)cc2)CCOCC1` showed a melting point of 147 to 148 °C.

Compound `COC(=O)C=CCC1C(=O)N2C(C(=O)OCc3ccc([N+](=O)[O-])cc3)=CCC12` (stereo not drawn) registered a melting point of 109 to 111 °C.

On to `COc1ccc2c(c1)C(c1ccccc1Cl)C(=O)N2` (stereo not drawn), for which the melting point amounted to 179 °C.

Turning to `CC(C)n1nc(-c2nc(N)c(C(N)=O)nc2-c2ccccc2)ccc1=O`, the melting point is 217 to 220 °C.

`CCCOCCN(CC)c1ccc(-c2ccc3c(c2)C=C(C(=O)Nc2ccc(CN(C)C4CCOCC4)cc2)CCS3(=O)=O)cc1` showed a melting point of 172 to 175 °C.

Compound `CCC(=O)OC1=CC(=O)CC(NC(=O)N(C)C)C1` (stereo not drawn) displayed a melting point of 69 to 74 °C.

In turn, `CNc1cc(N)c(C(=O)O)cc1[N+](=O)[O-]` returned a melting point of 260 to 272 °C.
